Laboratory results from patent publication US10195220B2, “Hydrogen sulphide compounds” (Aston University, priority 2013, dated 2019).
One block for each compound: values may come before it.

How the values were obtained:
[1] = system: first trimester human placental explants; experiment: Angiogenic factor release from first trimester placental villus explants (ELISA of conditioned medium); type: cell-based; conditions: increasing concentration of PAG over 24 hours
Source text: Institutional Ethics Committee approved the blood and tissue collection and written informed consent was obtained. We analysed blood samples from women with singleton pregnancies recruited in the Low- and High-Risk Clinics and Labour and Delivery Unit. All women were followed prospectively from enrolment until delivery. Human placental tissues were collected from pregnancies complicated by preeclampsia and uncomplicated pregnancies delivered by elective Caesarean. Samples of placental tissue were processed for RNA extraction and maternal plasma from the same patients (n=14 PE and n=14 control) were used for analysis. From another set of patients placenta (n=5 PE and n=5 control) was collected for the immunohistochemical study. Preeclampsia was defined as blood pressure >140/90 mm Hg on at least 2 consecutive measurements and maternal proteinuria of at least 300 mg/24 h. First trimester placental tissues (6-9 weeks gestational age) were retrieved from normal pregnancies that had undergone elective termination. Villus explants were prepared as described previously.^29 Briefly, human placental villus explants were incubated with or without PAG for 24 hours, and conditioned media collected and assayed for sFlt-1 or sEng and PlGF.
(§1) Enzyme-linked immunosorbent assay (ELISA) kits for human and murine soluble Flt-1, soluble endoglin and PlGF were obtained from R&D Systems and performed according to the manufacturer's specifications.
Angiogenic factors produced by placenta are important in regulating placental vascular development.^33 Imbalance of pro- and anti-angiogenic factors generated by the placenta^29 may account for the widespread maternal endothelial dysfunction in preeclampsia.^34 To investigate whether reduced levels of CSE has any effect on the production of placental angiogenic factor production, sFlt-1, sEng, and PlGF levels were measured in conditioned medium from first trimester human placental explants in the presence of increasing concentration of CSE inhibitor PAG over 24 hours.

[2] = system: HTR-8/SVneo cells; experiment: Trophoblast cell invasion assay (Matrigel-coated transwell); type: cell-based, human; conditions: PAG 50 μM, 24 h, p<0.01, n=3
Method: The human extravillus trophoblast (EVT) cell line HTR-8/SVneo was a kind gift from Professor Charles H. Graham, Queen's University, Kingston, Ontario, Canada. The invasion assay was performed as described previously, with modification.30 Briefly, HTR-8/SVneo (50,000) cells treated with or without PAG were placed in the upper chamber of Matrigel-coated (1 mg/ml) transwell inserts (8 μm pore, Falcon, BD, UK) and housed in a 24-well plate. The cells were allowed to invade through the reconstituted extracellular matrix for 24 h in the presence or absence of 50 µM PAG (n=3). Trophoblast cells located on the under-surface of the transwell membrane were fixed with ice-cold methanol and stained with hematoxylin, and brightfield images were obtained with Nikon inverted microscope and Image Pro Plus image analysis software (Media Cybernetics). Transwell migration assays of HTR-8/SVneo cells in the presence of 50 µM of PAG were performed as described in Methods. (A) Migrated HTR-8/SVneo were stained with hematoxylin, and brightfield images were captured. (B) Cell numbers were counted, and results are expressed as a percentage of the control (n=3).

[3] = system: pregnant C57Bl6/J mice; experiment: CSE inhibition in pregnant mice (PAG, with or without GYY4137); type: in vivo
Method: Eight to ten week old C57/black6 mice were mated. The first day of pregnancy (E0.5) was defined by the presence of a vaginal plug the following morning. Pregnant mice were randomly assigned into four groups: (i) saline (vehicle control), (ii) 25 mg/kg DL-propargylglycine (PAG; Sigma, Poole, U.K.), (iii) 50 mg/kg group PAG and (iv) 50 mg/kg
PAG with 0.25 mg/kg of slow-releasing H2S donor, GYY4137(Sigma). Mice were injected intraperitoneally (i.p.) with saline or PAG from E8.5. Blood pressure was measured by tail cuff-plethysmography. Mice were trained for measurement on alternate days from E4.5. Alternatively, mice were anesthetized by Ketamine/Xylazine cocktail. The carotid artery was isolated and cannulated with a 3-Fr high-fidelity microtip catheter connected to a pressure transducer (Millar Instruments, Houston, Tex., USA). Blood pressure was recorded and averaged over a 10-minute period. On E17.5, after blood pressure measurement and blood sample collection the animals were sacrificed and kidney, liver, and placenta were collected. The un-absorbed fetuses and placentas were counted and weighed.
Kidney, liver, and placenta were immersion fixed in 4% paraformaldehyde for 24 hours and processed to paraffin. A series of 5-μm sections were cut and processed for hematoxylin & eosin (H&E) staining.
as §1
Serial 3-5-μm sections of formalin-fixed, paraffin-embedded human and murine placental tissue were prepared for immunohistochemistry as previously described.^29 Biotin-labelled isolectin B4, anti-CSE (5 mg/ml) and isotype control were used. The staining was analyzed using a Nikon inverted microscope and an Image Pro Plus image analysis software (Media Cybernetics).
Citrated blood was obtained from women with uncomplicated pregnancies (n=14) and preeclampsia (n=14) and also from pregnant mice before termination of pregnancy. H2S levels were measured as described previously with modification.^32 Briefly, 75 μl plasma was mixed with 250 μl of 1% (w/v) zinc acetate and 425 μl water, followed by […] 50% trichloroacetic acid to remove protein. Then 133 μl 20 mM N-dimethyl-p-phenylenediamine sulphate in 7.2 mM HCl and 133 μl 30 μM FeCl3 in 1.2 mM HCl were added to the mixture. After 10 min incubation at room temperature, reaction mixtures were pelleted by centrifugation at 10,000 g (2 minutes). The absorbance of the resulting solution was measured at 670 nm with a spectrophotometer in a 96-well plate. The concentration of H2S in the solution was calculated against a calibration curve of sodium hydrogen sulfide.
Three groups (5-8/group) of pregnant C57Bl6/J mice were treated daily with vehicle or 25 mg/kg PAG or 50 mg/kg PAG from E8.5 to E16.5. After 8 days of treatment, plasma was pooled from all animals in each treatment group, and pooled H2S levels were measured. […] The labyrinth zone consists of cells of trophoblast and mesodermal origin that together undergo branching morphogenesis, resulting in a large surface area for nutrient and gas exchange between the mother and fetus. The maternal blood space is lined by trophoblast. During placental development, this space becomes progressively more finely divided.^37, 38 Using isolectin B4 to highlight the fetal endothelial cell,^39 we compared the anatomical features of the labyrinth zone in vehicle and 50 mg/kg PAG-treated mice.

[4] = system: rat; conditions: chronic administration; cited from earlier work
[5] = system: HUVEC; conditions: preeclamptic plasma, 100 mM NaHS
Method: The spontaneous formation of capillary-like structures by HUVECs on growth factor-reduced Matrigel (Becton Dickinson, Bedford, Mass.), was used to assess angiogenic potential. HUVECs were treated with plasma samples collected from pregnancies complicated by preeclampsia and uncomplicated pregnancies with or without H2S donor (NaHS) and incubated at 37° C. for 24 hours. Ninety-six well plates were coated with Matrigel (10 mg/ml) according to the manufacturer's instructions. HUVECs (1×10^4 cells/well) were then seeded on Matrigel-coated plates.

[6] = GYY4137 0.25 mg/kg with 50 mg/kg PAG
[7] = GYY4137 in mice treated with 50 mg/kg PAG

proteinuria (renal pathological changes) ([3]; PAG treated animals): not noted
Compound: C#CCC(N)C(=O)O (racemic) [PAG, DL-propargylglycine]
PlGF production [1]: significantly reduced | sEng levels in conditioned medium [1]: remained unchanged | sFlt-1 levels in conditioned medium [1]: remained unchanged | cell invasion compared with vehicle control [2]: significant reduction | fetal vasculature of the placenta (isolectin B4) ([3]; 50 mg/kg PAG): irregular branching | plasma levels of sEng ([3]; 50 mg/kg PAG alone): induced | plasma levels of sFlt-1 ([3]; 50 mg/kg PAG alone): induced | maternal blood space in the labyrinth zone, versus vehicle controls ([3]; 50 mg/kg PAG, blinded histology of placental sections): appeared larger | circulating H2S levels ([3]; 25 or 50 mg/kg PAG i.p. daily E8.5 to E16.5, pooled plasma): dose-dependent decrease | circulating liver enzyme aspartate transaminase (AST), liver damage ([3]; PAG-treated animals): increased level | mean blood pressure ([3]; high dose PAG (50 mg/kg), vehicle control 64.74±2.04): 74.40±4.61 | reduction of plasma H2S levels ([3]; higher dose PAG (50 mg/kg), after 8 days of treatment, pooled plasma): approximately 50% | fetal weight ([3]; higher dose of PAG): significantly decreased | blood pressure [4]: elevated

Compound: C1COCCN1.COc1ccc(P(=S)(S)N2CCOCC2)cc1 (centres unmarked) [GYY4137, morpholin-4-ium 4 methoxy phenyl(morpholino)phosphinodithiolate]
all the changes of PAG-treated pregnant mice (blood pressure, AST) [3, 6]: abrogated | fetal growth compromised by the CSE inhibitor [3, 6]: restored | plasma levels of sEng induced by CSE inhibition [3, 7]: inhibited | plasma levels of sFlt-1 induced by CSE inhibition [3, 7]: inhibited | blood pressure compromised by PAG-treatment ([3]; GYY4137 with PAG): rescued | liver function compromised by PAG-treatment ([3]; GYY4137 with PAG): rescued | placental vascular defect due to inhibition of CSE activity ([3]; GYY4137 with PAG 50 mg/kg): restored

Compound: [Na+].[SH-] [NaHS, sodium hydrogen sulfide]
ability of HUVECs to form tube-like structure [5]: partially restored
